# From US9630922B2, “3-spiro-7-hydroxamic acid tetralins as HDAC inhibitors” (Forma Therapeutics, Inc., priority 2015, dated 2017)
# Target: T1, HDAC6 (Homo sapiens, UniProt Q9UBN7)
# T1 construct: Full length human recombinant HDAC6 protein was expressed in baculoviral system; made in house; host or cells: baculoviral system
# T1 sequence (Q9UBN7 1-1215): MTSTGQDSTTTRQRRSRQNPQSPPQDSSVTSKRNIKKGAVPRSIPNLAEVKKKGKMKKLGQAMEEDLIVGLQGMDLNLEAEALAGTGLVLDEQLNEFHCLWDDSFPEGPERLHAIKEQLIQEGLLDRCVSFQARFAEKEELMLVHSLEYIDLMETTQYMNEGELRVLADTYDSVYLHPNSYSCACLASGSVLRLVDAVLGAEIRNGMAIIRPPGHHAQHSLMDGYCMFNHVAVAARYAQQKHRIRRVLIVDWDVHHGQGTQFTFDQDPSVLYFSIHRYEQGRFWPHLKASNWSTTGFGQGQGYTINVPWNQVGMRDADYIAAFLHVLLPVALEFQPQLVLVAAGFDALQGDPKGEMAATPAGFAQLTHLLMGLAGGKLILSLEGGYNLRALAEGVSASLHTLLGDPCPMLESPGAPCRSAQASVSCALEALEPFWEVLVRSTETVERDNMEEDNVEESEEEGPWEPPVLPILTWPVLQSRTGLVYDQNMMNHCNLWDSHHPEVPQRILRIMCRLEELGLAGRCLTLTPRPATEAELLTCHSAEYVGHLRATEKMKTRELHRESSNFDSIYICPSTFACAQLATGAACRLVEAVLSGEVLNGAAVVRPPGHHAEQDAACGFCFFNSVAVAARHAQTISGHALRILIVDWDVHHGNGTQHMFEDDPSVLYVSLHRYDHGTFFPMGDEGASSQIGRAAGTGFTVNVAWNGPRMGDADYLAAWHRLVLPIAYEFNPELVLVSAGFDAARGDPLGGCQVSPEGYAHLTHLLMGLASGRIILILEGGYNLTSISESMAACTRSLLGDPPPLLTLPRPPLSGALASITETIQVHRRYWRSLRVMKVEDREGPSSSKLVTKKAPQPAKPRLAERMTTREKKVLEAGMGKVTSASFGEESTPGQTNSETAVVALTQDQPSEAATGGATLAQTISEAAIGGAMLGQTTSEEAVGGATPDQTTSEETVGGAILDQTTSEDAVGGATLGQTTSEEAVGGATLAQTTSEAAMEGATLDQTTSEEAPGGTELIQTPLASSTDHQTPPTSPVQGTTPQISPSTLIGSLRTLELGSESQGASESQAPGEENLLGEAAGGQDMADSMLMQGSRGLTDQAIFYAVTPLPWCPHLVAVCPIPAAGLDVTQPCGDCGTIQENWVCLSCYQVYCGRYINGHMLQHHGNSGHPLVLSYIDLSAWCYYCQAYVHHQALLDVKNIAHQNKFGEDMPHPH
# Test: In vitro Histone Deacetylase Assay (enzymatic HDAC6 electrophoretic mobility shift assay)
# Assay type: biochemical
# Conditions: full length human recombinant HDAC6, 1 nM enzyme, 2 μM peptide substrate RHKK(Ac)-NH2, 25° C.; read-out: HDAC6 activity range
# How it was run: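 Deacetylation was read by microfluidic mobility shift as product/(substrate+product) peak ratio and normalised to 0% and 100% inhibition controls. Reactions used 1 nM baculovirus-expressed full-length human HDAC6 and 2 μM labelled RHKK(Ac)-NH2 in pH 7.5 HEPES buffer with 1% DMSO at 25 °C. IC50 was from 4-parameter fits of 12 concentrations.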
row,IC50,SMILES
1,≤ 100 nM,"CS(=O)(=O)c1ccc(CN2CC[C@]3(CCc4cc(C(=O)NO)ccc4C3)C2=O)cc1 [Compound I-88, (R)-N-hydroxy-1′-(4-(methylsulfonyl)benzyl)-2′-oxo-3,4-dihydro-1H-spiro[naphthalene-2,3′-pyrrolidine]-6-carboxamide]"
2,≤ 100 nM,"O=C(NO)c1ccc2c(c1)CC[C@]1(CCN(c3cccc4ccccc34)C1=O)C2 [Compound I-89, (R)-N-hydroxy-1′-(naphthalen-1-yl)-2′-oxo-3,4-dihydro-1H-spiro[naphthalene-2,3′-pyrrolidine]-6-carboxamide]"
3,≤ 100 nM,"COc1ccc(N2CC[C@]3(CCc4cc(C(=O)NO)ccc4C3)C2=O)cc1F [Compound I-90, (R)-1′-(3-fluoro-4-methoxyphenyl)-N-hydroxy-2′-oxo-3,4-dihydro-1H-spiro[naphthalene-2,3′-pyrrolidine]-6-carboxamide]"
4,≤ 100 nM,"O=C(NO)c1ccc2c(c1)CC[C@]1(CCN(c3ccc4c(c3)OCO4)C1=O)C2 [Compound I-91, (R)-1′-(benzo[d][1,3]dioxol-5-yl)-N-hydroxy-2′-oxo-3,4-dihydro-1H-spiro[naphthalene-2,3′-pyrrolidine]-6-carboxamide]"
5,≤ 100 nM,"CSc1cccc(N2CC[C@]3(CCc4cc(C(=O)NO)ccc4C3)C2=O)c1 [Compound I-92, (R)-N-hydroxy-1′-(3-(methylthio)phenyl)-2′-oxo-3,4-dihydro-1H-spiro[naphthalene-2,3′-pyrrolidine]-6-carboxamide]"
6,≤ 100 nM,"CN(C)c1ccc(N2CC[C@]3(CCc4cc(C(=O)NO)ccc4C3)C2=O)cc1 [Compound I-93, (R)-1′-(4-(dimethylamino)phenyl)-N-hydroxy-2′-oxo-3,4-dihydro-1H-spiro[naphthalene-2,3′-pyrrolidine]-6-carboxamide]"
7,≤ 100 nM,"CC(C)c1ccc(N2CC[C@]3(CCc4cc(C(=O)NO)ccc4C3)C2=O)cn1 [Compound I-94, (R)-N-hydroxy-1′-(6-isopropylpyridin-3-yl)-2′-oxo-3,4-dihydro-1H-spiro[naphthalene-2,3′-pyrrolidine]-6-carboxamide]"
8,≤ 100 nM,"O=C(NO)c1ccc2c(c1)CC[C@]1(CCN(c3cnc4ccccc4c3)C1=O)C2 [Compound I-95, (R)-N-hydroxy-2′-oxo-1′-(quinolin-3-yl)-3,4-dihydro-1H-spiro[naphthalene-2,3′-pyrrolidine]-6-carboxamide]"
9,≤ 100 nM,"O=C(NO)c1ccc2c(c1)CC[C@]1(CCN(c3cccc4c3OCC4)C1=O)C2 [Compound I-96, (R)-1′-(2,3-dihydrobenzofuran-7-yl)-N-hydroxy-2′-oxo-3,4-dihydro-1H-spiro[naphthalene-2,3′-pyrrolidine]-6-carboxamide]"
10,≤ 100 nM,"CC(C)(C)Nc1cc(N2CC[C@]3(CCc4cc(C(=O)NO)ccc4C3)C2=O)ncn1 [Compound I-97, (R)-1′-(6-(tert-butylamino)pyrimidin-4-yl)-N-hydroxy-2′-oxo-3,4-dihydro-1H-spiro[naphthalene-2,3′-pyrrolidine]-6-carboxamide]"
11,≤ 100 nM,"Cc1nn(C)cc1N1CC[C@]2(CCc3cc(C(=O)NO)ccc3C2)C1=O [Compound I-98, (R)-1′-(1,3-dimethyl-1H-pyrazol-4-yl)-N-hydroxy-2′-oxo-3,4-dihydro-1H-spiro[naphthalene-2,3′-pyrrolidine]-6-carboxamide]"
12,≤ 100 nM,"O=C(NO)c1ccc2c(c1)CC[C@]1(CCN(c3ccc4nccn4c3)C1=O)C2 [Compound I-99, (R)-N-hydroxy-1′-(imidazo[1,2-a]pyridin-6-yl)-2′-oxo-3,4-dihydro-1H-spiro[naphthalene-2,3′-pyrrolidine]-6-carboxamide]"
13,≤ 100 nM,"Cc1ccc(N2CC[C@@]3(CCc4cc(C(=O)NO)ccc4C3)C2=O)c(C)c1 [Compound I-100, (S)-1′-(2,4-dimethylphenyl)-N-hydroxy-2′-oxo-3,4-dihydro-1H-spiro[naphthalene-2,3′-pyrrolidine]-6-carboxamide]"
14,≤ 100 nM,"CC(C)c1ccc(N2CC[C@@]3(CCc4cc(C(=O)NO)ccc4C3)C2=O)cn1 [Compound I-101, (S)-N-hydroxy-1′-(6-isopropylpyridin-3-yl)-2′-oxo-3,4-dihydro-1H-spiro[naphthalene-2,3′-pyrrolidine]-6-carboxamide]"
15,≤ 100 nM,"O=C(NO)c1ccc2c(c1)CC[C@@]1(CCN(c3cnc4ccccc4c3)C1=O)C2 [Compound I-102, (S)-N-hydroxy-2′-oxo-1′-(quinolin-3-yl)-3,4-dihydro-1H-spiro[naphthalene-2,3′-pyrrolidine]-6-carboxamide]"
16,≤ 100 nM,"CN1CC[C@]2(CCc3cc(C(=O)NO)ccc3C2)C1=O [Compound I-104, (R)-N-hydroxy-1′-methyl-2′-oxo-3,4-dihydro-1H-spiro[naphthalene-2,3′-pyrrolidine]-6-carboxamide]"
17,≤ 100 nM,"CN1CC[C@@]2(CCc3cc(C(=O)NO)ccc3C2)C1=O [Compound I-105, (S)-N-hydroxy-1′-methyl-2′-oxo-3,4-dihydro-1H-spiro[naphthalene-2,3′-pyrrolidine]-6-carboxamide]"
18,≤ 100 nM,"O=C(NO)c1ccc2c(c1)CC[C@]1(CCN(Cc3ccc(S(=O)(=O)C(F)(F)F)cc3)C1=O)C2 [Compound I-106, (R)-N-hydroxy-2′-oxo-1′-(4-((trifluoromethyl)sulfonyl)benzyl)-3,4-dihydro-1H-spiro[naphthalene-2,3′-pyrrolidine]-6-carboxamide]"
19,100 to 500 nM,"O=C(NO)c1ccc2c(c1)CC[C@@]1(CCN(Cc3ccc(S(=O)(=O)C(F)(F)F)cc3)C1=O)C2 [Compound I-107, (S)-N-hydroxy-2′-oxo-1′-(4-((trifluoromethyl)sulfonyl)benzyl)-3,4-dihydro-1H-spiro[naphthalene-2,3′-pyrrolidine]-6-carboxamide]"
20,≤ 100 nM,"COc1cccc(N2CC[C@]3(CCc4cc(C(=O)NO)ccc4C3)C2=O)c1 [Compound I-108, (R)-N-hydroxy-1′-(3-methoxyphenyl)-2′-oxo-3,4-dihydro-1H-spiro[naphthalene-2,3-pyrrolidine]-6-carboxamide]"
21,≤ 100 nM,"O=C(NO)c1ccc2c(c1)CC[C@]1(CCN(C3CC3)C1=O)C2 [Compound I-109, (R)-1′-cyclopropyl-N-hydroxy-2′-oxo-3,4-dihydro-1H-spiro[naphthalene-2,3′-pyrrolidine]-6-carboxamide]"
22,≤ 100 nM,"O=C(NO)c1ccc2c(c1)CC[C@]1(CCN(c3cncc(F)c3)C1=O)C2 [Compound I-110, (R)-1′-(5-fluoropyridin-3-yl)-N-hydroxy-2′-oxo-3,4-dihydro-1H-spiro[naphthalene-2,3′-pyrrolidine]-6-carboxamide]"
23,≤ 100 nM,COc1ccccc1N1CC[C@]2(CCc3cc(C(=O)NO)ccc3C2)C1=O [Compound I-111]
24,≤ 100 nM,"N#Cc1cccc(N2CC[C@]3(CCc4cc(C(=O)NO)ccc4C3)C2=O)c1 [Compound I-112, (R)-1′-(3-cyanophenyl)-N-hydroxy-2′-oxo-3,4-dihydro-1H-spiro[naphthalene-2,3′-pyrrolidine]-6-carboxamide]"
25,≤ 100 nM,"O=C(NO)c1ccc2c(c1)CC[C@]1(CCN(c3cccc(F)c3)C1=O)C2 [Compound I-113, (R)-1′-(3-fluorophenyl)-N-hydroxy-2′-oxo-3,4-dihydro-1H-spiro[naphthalene-2,3′-pyrrolidine]-6-carboxamide]"
26,≤ 100 nM,"COc1ccc(N2CC[C@]3(CCc4cc(C(=O)NO)ccc4C3)C2=O)cn1 [Compound I-114, (R)-N-hydroxy-1′-(6-methoxypyridin-3-yl)-2′-oxo-3,4-dihydro-1H-spiro[naphthalene-2,3′-pyrrolidine]-6-carboxamide]"
27,≤ 100 nM,"COc1ccccc1N1CC[C@@]2(CCc3cc(C(=O)NO)ccc3C2)C1=O [Compound I-115, (S)-N-hydroxy-1′-(2-methoxyphenyl)-2′-oxo-3,4-dihydro-1H-spiro[naphthalene-2,3′-pyrrolidine]-6-carboxamide]"
